Test results as given in patent publication US20260297108A1, “NOVEL INHIBITORS OF PIKFYVE AND METHODS USING SAME” (priority 2023, published 2026).
Where two headings read alike, the source gives them in different places.

Assays:
[1] = system: IL-12 and IL-23 synthesis; conditions: background; cited from earlier work
enveloped viruses = conditions: background; cited from earlier work
PIKFYVE [2] = target: T1, PIKFYVE (Homo sapiens, UniProt Q9Y2I7); set-up: T7 phage display fusion, or alternatively DNA tag for qPCR (general KINOMEscan description); purchased Eurofins; conditions: background; cited from earlier work
T1 sequence (Q9Y2I7 whole entry, the tested form may be a part): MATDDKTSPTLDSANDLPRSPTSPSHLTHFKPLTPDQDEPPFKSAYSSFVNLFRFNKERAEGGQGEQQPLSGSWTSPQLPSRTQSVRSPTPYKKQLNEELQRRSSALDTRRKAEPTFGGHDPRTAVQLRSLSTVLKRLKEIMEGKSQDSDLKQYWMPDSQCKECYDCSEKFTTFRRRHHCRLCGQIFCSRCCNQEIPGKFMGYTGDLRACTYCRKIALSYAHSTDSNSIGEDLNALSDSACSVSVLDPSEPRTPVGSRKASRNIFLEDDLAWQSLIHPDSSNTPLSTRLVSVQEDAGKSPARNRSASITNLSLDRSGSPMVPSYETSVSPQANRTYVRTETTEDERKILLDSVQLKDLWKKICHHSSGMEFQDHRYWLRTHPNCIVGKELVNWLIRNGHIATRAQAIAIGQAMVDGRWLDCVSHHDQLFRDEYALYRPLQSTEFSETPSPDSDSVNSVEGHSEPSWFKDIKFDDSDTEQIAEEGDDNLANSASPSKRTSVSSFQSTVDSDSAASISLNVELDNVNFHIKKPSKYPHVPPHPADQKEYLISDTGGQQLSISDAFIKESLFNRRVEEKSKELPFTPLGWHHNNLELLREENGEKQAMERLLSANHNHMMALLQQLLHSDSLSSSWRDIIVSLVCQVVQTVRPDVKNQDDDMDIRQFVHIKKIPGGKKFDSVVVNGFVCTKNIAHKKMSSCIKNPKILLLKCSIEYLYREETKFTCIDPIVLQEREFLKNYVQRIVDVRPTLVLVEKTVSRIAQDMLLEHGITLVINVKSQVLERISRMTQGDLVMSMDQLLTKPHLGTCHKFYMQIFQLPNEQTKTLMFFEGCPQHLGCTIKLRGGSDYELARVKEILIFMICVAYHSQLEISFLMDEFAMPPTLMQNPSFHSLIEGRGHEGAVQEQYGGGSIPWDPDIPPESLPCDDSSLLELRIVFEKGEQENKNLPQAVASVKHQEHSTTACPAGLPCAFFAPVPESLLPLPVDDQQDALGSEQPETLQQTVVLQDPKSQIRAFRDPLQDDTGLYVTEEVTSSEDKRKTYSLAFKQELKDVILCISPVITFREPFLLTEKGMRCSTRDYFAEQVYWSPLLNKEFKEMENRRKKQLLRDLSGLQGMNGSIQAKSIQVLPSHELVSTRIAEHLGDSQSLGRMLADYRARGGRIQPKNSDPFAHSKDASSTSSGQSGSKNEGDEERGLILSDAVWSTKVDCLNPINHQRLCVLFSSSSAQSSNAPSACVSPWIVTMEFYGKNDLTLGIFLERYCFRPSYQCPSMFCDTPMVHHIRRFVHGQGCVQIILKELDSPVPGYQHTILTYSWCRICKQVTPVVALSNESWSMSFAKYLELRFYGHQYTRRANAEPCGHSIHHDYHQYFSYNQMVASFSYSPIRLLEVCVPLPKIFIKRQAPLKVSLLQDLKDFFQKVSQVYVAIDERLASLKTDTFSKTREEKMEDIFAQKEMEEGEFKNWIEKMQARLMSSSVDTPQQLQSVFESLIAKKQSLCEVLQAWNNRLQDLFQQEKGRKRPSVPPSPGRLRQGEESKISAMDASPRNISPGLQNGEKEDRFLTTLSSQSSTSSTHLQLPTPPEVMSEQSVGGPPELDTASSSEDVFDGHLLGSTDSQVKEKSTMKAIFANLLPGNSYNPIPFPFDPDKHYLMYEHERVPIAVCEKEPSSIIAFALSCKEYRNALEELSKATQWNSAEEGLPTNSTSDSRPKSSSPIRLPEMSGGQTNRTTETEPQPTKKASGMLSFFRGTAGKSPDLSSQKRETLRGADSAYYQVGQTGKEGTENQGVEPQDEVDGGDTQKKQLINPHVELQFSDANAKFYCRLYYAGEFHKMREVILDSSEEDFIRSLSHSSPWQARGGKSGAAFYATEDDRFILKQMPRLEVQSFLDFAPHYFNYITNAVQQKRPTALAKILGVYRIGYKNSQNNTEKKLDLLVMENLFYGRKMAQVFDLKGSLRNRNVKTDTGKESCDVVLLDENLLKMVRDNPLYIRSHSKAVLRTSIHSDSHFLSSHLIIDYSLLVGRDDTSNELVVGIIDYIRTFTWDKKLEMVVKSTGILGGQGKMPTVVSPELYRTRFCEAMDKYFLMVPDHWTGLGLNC

Marburg = type: cell-based, Marburg virus (Angola strain)
MDCK cells = conditions: dog
SARS-CoV2 (Delta) = assay: SARS-COV-2 IFA, inhibition of CPE (Delta strain B.1.617); type: cell-based, SARS-COV-2 Delta strain B.1.617; conditions: CC50 divided by EC50
in vitro [3] = conditions: monkey, vero cells
SARS-CoV2 = assay: SARS-COV-2 IFA, inhibition of CPE (strain USA-WA1/2020); type: cell-based; conditions: CC50 divided by EC50
Influenza A = assay: Influenza A, inhibition of CPE; type: cell-based, influenza A strain California/07/09 (H1N1) pdm09; conditions: CC50 divided by EC50
in vitro [4] = conditions: dog, mdck
PIKFYVE [5] = target: T1, PIKFYVE; assay: KINOMEscan Kinase Assay (PIKFYVE inhibitory activity)
[6] = read-out: PIKfyve Activity (PIKfyve % inhibition)
[7] = read-out: PIKfyve Activity (% inhibition)

SMILES	inhibition at 0.001 µM (PIKFYVE [5]; [6])	further results
Cc1cccc(/C=N/Nc2cc(N3CCOCC3)nc(OCCc3ccccn3)n2)c1 [Apilimod]	–	inhibitor of IL-12 and IL-23 synthesis [1]: inhibitor of IL-12 and IL-23 synthesis; prevention of infection by enveloped viruses (enveloped viruses): prevent infection by some of these enveloped viruses; PIKFYVE inhibitory activity (PIKFYVE [2]): potent PIKFYVE inhibitory activity
Cc1cccc(-c2ccn(-c3nc(N4CCOCC4)c4sc(CN5CCN(S(C)(=O)=O)CC5)cc4n3)n2)c1 [Ex. 2, 4-(6-((4-(methylsulfonyl)piperazin-1-yl)methyl)-2-(3-(m-tolyl)-1H-pyrazol-1-yl)thieno[3,2-d]pyrimidin-4-yl)morpholine]	–	Selectivity Index (Marburg): >15000; CC50 (MDCK cells): > 150 µM; Selectivity Index (SARS-CoV2 (Delta)): >1000; CC50 at 24 h (in vitro [3]): > 3 µM; Selectivity Index (SARS-CoV2): >150; Selectivity Index (Influenza A): >150; CC50 (in vitro [4]): > 3 µM
Cc1cccc(-c2ccn(-c3cc(N4CCOCC4)c4sc(CN5CCN(S(C)(=N)=O)CC5)cc4n3)n2)c1 (stereo not shown) [Ex. 284]	52 to 100%	–
Cc1cccc(-c2ccn(-c3cc(N4CCOCC4)c4nc(CN5C6CC5CN(S(C)(=O)=O)C6)[nH]c4n3)n2)c1 [Ex. 285]	52 to 100%	–
Cc1cccc(-c2ccn(-c3nc(N4CCOCC4)c4sc(C(=O)N5CCN(S(C)(=O)=O)CC5)cc4n3)n2)c1 [Ex. 286]	52 to 100%	–
Cc1cccc(-c2ccn(-c3nc(N4CCOCC4)c4nc(C(=O)N5CCN(S(C)(=O)=O)CC5)n(C)c4n3)n2)c1 [Ex. 287]	52 to 100%	–
Cc1cccc(-c2ccn(-c3cc(N4CCOCC4)c4sc(C(=O)N5CCN(S(C)(=O)=O)CC5)c(C)c4n3)n2)c1 [Ex. 291]	52 to 100%	–
Cc1cccc(-c2ccn(-c3nc4[nH]c(C(=O)N5CCN(S(C)(=O)=O)CC5)nc4c(N4CCOCC4)c3F)n2)c1 [Ex. 292]	–	inhibition at 0.001 µM (PIKFYVE [5]; [7]): 13%
Cc1cccc(-c2ccn(-c3cc(N4CCOCC4)c4sc(C(N)=O)cc4n3)n2)c1 [Ex. 293]	52 to 100%	–
CC(=O)N1CCN(Cc2cc3nc(-n4ccc(-c5cccc(C)c5)n4)cc(N4CCOCC4)c3s2)CC1 [Ex. 295]	52 to 100%	–
CC(=O)NC1CCN(Cc2cc3nc(-n4ccc(-c5cccc(C)c5)n4)cc(N4CCOCC4)c3s2)CC1 [Ex. 296]	52 to 100%	–
Cc1cccc(-c2ccn(-c3cc(N4CCOCC4)c4sc(CN5CCC(C(N)=O)CC5)cc4n3)n2)c1 [Ex. 297]	52 to 100%	–
Cc1cccc(-c2ccn(-c3cc(N4CCOCC4)c4nc(C(=O)NC5COC5)[nH]c4n3)n2)c1 [Ex. 298]	52 to 100%	–
Cc1cccc(-c2ccn(-c3cc(N4CCOCC4)c4sc(C(=O)Nc5ccccn5)cc4n3)n2)c1 [Ex. 299]	52 to 100%	–
CC(=O)N1CCN(Cc2nc3c(N4CCOCC4)cc(-n4ccc(-c5cccc(C)c5)n4)nc3[nH]2)CC1 [Ex. 301]	52 to 100%	–
CC(=O)NC1CCN(Cc2nc3c(N4CCOCC4)cc(-n4ccc(-c5cccc(C)c5)n4)nc3[nH]2)CC1 [Ex. 302]	52 to 100%	–

SMILES	inhibition at 0.001 µM (PIKFYVE [5]; [6])	further results
Cc1cccc(-c2ccn(-c3cc(N4CCOCC4)c4nc(CN5CCC(C(N)=O)CC5)[nH]c4n3)n2)c1 [Ex. 303]	52 to 100%	–
Cc1cccc(-c2ccn(-c3cc(N4CCOCC4)c4nc(C(=O)N5CCN(S(C)(=O)=O)CC5)n(C)c4n3)n2)c1 [Ex. 304]	–	inhibition at 0.001 µM (PIKFYVE [5]; [7]): 46%
Cc1cccc(-c2ccn(-c3cc(N4CCOCC4)c4nc(C(=O)NC5CC5)[nH]c4n3)n2)c1 [Ex. 305]	52 to 100%	–
Cc1cccc(-c2ccn(-c3nc4[nH]c(C(=O)N5CCC(C(C)(C)O)CC5)nc4c(N4CCOCC4)c3F)n2)c1 [Ex. 306]	–	inhibition at 0.003 µM (PIKFYVE [5]; [7]): 9%
Cc1cccc(-c2ccn(-c3nc4[nH]c(C(=O)NC5CC5)nc4c(N4CCOCC4)c3F)n2)c1 [Ex. 307]	–	inhibition at 0.003 µM (PIKFYVE [5]; [7]): 0%
Cc1cccc(-c2ccn(-c3cc(N4CCOCC4)c4nc(C(=O)NC5COC5)n(C)c4n3)n2)c1 [Ex. 308]	52 to 100%	–
Cc1cccc(-c2ccn(-c3cc(N4CCOCC4)c4nc(C(=O)NC5CC5)n(C)c4n3)n2)c1 [Ex. 309]	52 to 100%	–
Cc1cccc(-c2ccn(-c3nc4[nH]c(C(=O)NC5COC5)nc4c(N4CCOCC4)c3F)n2)c1 [Ex. 310]	–	inhibition at 0.003 µM (PIKFYVE [5]; [7]): 0%
Cc1cccc(-c2ccn(-c3nc(N4CCOCC4)c4sc(CO)cc4n3)n2)c1 [Ex. 311]	52 to 100%	–
Cc1cccc(-c2ccn(-c3nc4[nH]c(C(=O)N5CCC(N6CCC6)C(F)C5)nc4c(N4CCOCC4)c3F)n2)c1 (stereo not shown) [Ex. 312]	–	inhibition at 0.003 µM (PIKFYVE [5]; [7]): 10%
Cc1cccc(-c2ccn(-c3cc(N4CCOCC4)c4sc(CO)cc4n3)n2)c1 [Ex. 313]	52 to 100%	–
Cc1cccc(-c2ccn(-c3nc(N4CCOCC4)c4nc(CO)[nH]c4n3)n2)c1 [Ex. 314]	–	inhibition at 0.001 µM (PIKFYVE [5]; [7]): 40%
Cc1cccc(-c2ccn(-c3nc(N4CCOCC4)c4nc(CO)n(C)c4n3)n2)c1 [Ex. 315]	–	inhibition at 0.001 µM (PIKFYVE [5]; [7]): 47%
Cc1cccc(-c2ccn(-c3cc(N4CCOCC4)c4nc(COCc5ccccc5)[nH]c4n3)n2)c1 [Ex. 316]	52 to 100%	–
Cc1cccc(-c2ccn(-c3cc(N4CCOCC4)c4nc(CO)[nH]c4n3)n2)c1 [Ex. 317]	52 to 100%	–
NC(=O)c1ncn([C@@H]2O[C@H](CO)[C@@H](O)[C@H]2O)n1 [ribavirin, reference compound]	–	CC50 (MDCK cells): > 1000 µM
